Molecular target: T1, native bovine β-lactoglobulin (n-β-LG) (Bos taurus, UniProt P02754)
T1 construct: gene LGB; dimer prevails at physiological pH
T1 sequence (P02754 17-178): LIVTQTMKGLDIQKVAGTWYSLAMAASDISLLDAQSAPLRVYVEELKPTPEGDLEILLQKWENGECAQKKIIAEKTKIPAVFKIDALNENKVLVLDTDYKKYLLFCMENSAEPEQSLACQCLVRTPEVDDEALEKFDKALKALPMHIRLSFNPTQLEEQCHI
Experiment: intrinsic tryptophan fluorescence quenching (excitation […] nm)
Type: binding
Details: native protein treated at 25 °C (measured at 23 ± 1 °C), Tris buffer pH 8.0; double-log

n-β-LG / Kb (10^6 Mol^-1): 0.72 ± 0.03 10^6 Mol^-1
Compound: O=C(O)/C=C/c1ccc(O)c(O)c1 [CA, caffeic acid]

Source: article PMC7464270, “The Interaction of Bovine β-Lactoglobulin with Caffeic Acid: From Binding Mechanisms to Functional Complexes” (Biomolecules, 2020)
